Columns and labels:
Type in all cases: functional, cell-based
SMMC-7721 = assay: Cytotoxicity against human SMMC-7721 cells assessed as reduction in cell viability after 48 hrs by MTT assay; conditions: SMMC-7721, 48 h
Huh-7 = assay: Cytotoxicity against human Huh-7 cells assessed as reduction in cell viability after 48 hrs by MTT assay; conditions: Huh-7, 48 h
HepG2 = assay: Cytotoxicity against human HepG2 cells assessed as reduction in cell viability after 48 hrs by MTT assay; conditions: HepG2, 48 h

C=C1C(=O)O[C@H]2C/C(C)=C/[C@H](OC(C)=O)C[C@@]3(C)O[C@H]3C[C@H]12
IC50 (SMMC-7721): > 10 µM
IC50 (Huh-7): > 10 µM
IC50 (HepG2): > 10 µM

C=C1C(=O)O[C@@H]2CC(=C)[C@@H]3CC[C@@](C)(O)[C@@H]3C[C@H]12
IC50 (SMMC-7721): > 10 µM
IC50 (Huh-7): > 10 µM
IC50 (HepG2): > 10 µM

C=C1C(=O)O[C@@H]2C[C@@]3(C)C=CC(=O)C(C)=C3C[C@H]12
IC50 (SMMC-7721): > 10 µM
IC50 (Huh-7): > 10 µM
IC50 (HepG2): > 10 µM

C=C1C(=O)O[C@@H]2C[C@]3(C)[C@@H](C[C@H]12)[C@H](C)C(=O)[C@@H]1O[C@@H]13
IC50 (SMMC-7721): > 10 µM
IC50 (Huh-7): > 10 µM
IC50 (HepG2): > 10 µM

C=C1C[C@@H](OC(C)=O)/C=C(\C)C[C@@H]2OC(=O)C(=C)[C@H]2C[C@@H]1OC(C)=O
IC50 (SMMC-7721): > 10 µM
IC50 (Huh-7): > 10 µM
IC50 (HepG2): > 10 µM

C=C1C[C@@H]2OC(=O)C(=C)[C@H]2C[C@@H]2[C@@H]1[C@H](OC(C)=O)C[C@@]2(C)O
IC50 (SMMC-7721): > 10 µM
IC50 (Huh-7): > 10 µM
IC50 (HepG2): > 10 µM

C=C1C(=O)O[C@H]2C[C@@]3(C)[C@H](O)CCC(=C)[C@]3(OO)C[C@H]12
IC50 (SMMC-7721): > 10 µM
IC50 (Huh-7): > 10 µM
IC50 (HepG2): > 10 µM

C=C1C(=O)O[C@H]2C/C(C)=C/[C@H](OC(C)=O)C[C@@]3(CO3)C(=O)C[C@H]12
IC50 (SMMC-7721): > 10 µM
IC50 (Huh-7): 8.8 µM
IC50 (HepG2): 8.6 µM

C=C1C(=O)O[C@@H]2C[C@]3(C)O[C@H](C[C@H]12)C(=C)CC[C@@H]3O
IC50 (SMMC-7721): > 10 µM
IC50 (Huh-7): > 10 µM
IC50 (HepG2): > 10 µM

C=C1C[C@@H](OC(C)=O)/C=C(\C)C[C@@H]2OC(=O)C(=C)[C@H]2C[C@@H]1OO
IC50 (SMMC-7721): > 10 µM
IC50 (Huh-7): 10 µM
IC50 (HepG2): > 10 µM

C=C1C[C@H]2OC(=O)C(=C)[C@H]2C[C@@H](O)C(=C)CCC1=O
IC50 (SMMC-7721): > 10 µM
IC50 (Huh-7): > 10 µM
IC50 (HepG2): > 10 µM

C=C1C[C@@H](OC(C)=O)/C=C(\C)C[C@@H]2OC(=O)C(=C)[C@H]2CC1=O
IC50 (SMMC-7721): 3.1 µM
IC50 (Huh-7): 4.3 µM
IC50 (HepG2): 4.9 µM

C=C1C[C@@H](OC(C)=O)/C=C(\C)C[C@@H]2OC(=O)C(=C)[C@H]2C[C@H]1O
IC50 (SMMC-7721): > 10 µM
IC50 (Huh-7): > 10 µM
IC50 (HepG2): > 10 µM

C=C1C(=O)O[C@@H]2C[C@]3(C)[C@@H](CCC(C)=O)[C@@H]3C[C@H]12
IC50 (SMMC-7721): > 10 µM
IC50 (Huh-7): 7.8 µM
IC50 (HepG2): > 7.4 µM

CNC(=O)c1cc(Oc2ccc(NC(=O)Nc3ccc(Cl)c(C(F)(F)F)c3)cc2)ccn1 [SORAFENIB]
IC50 (SMMC-7721): > 10 µM
IC50 (Huh-7): 10.1 µM
IC50 (HepG2): 8 µM

C=C1C(=O)O[C@H]2C/C(C)=C/[C@H](OC(C)=O)CC(=C)[C@@H](O)C[C@H]12
IC50 (SMMC-7721): > 10 µM
IC50 (Huh-7): > 10 µM
IC50 (HepG2): > 10 µM

C=C1C(=O)O[C@@H]2C[C@H](C)[C@]3(/C=C/C(C)=O)O[C@@H]3C[C@H]12
IC50 (SMMC-7721): > 10 µM
IC50 (Huh-7): 8.2 µM
IC50 (HepG2): > 10 µM

C=C1C(=O)O[C@H]2C[C@@]3(C)[C@H](O)CCC(=C)[C@]3(O)C[C@H]12
IC50 (SMMC-7721): > 10 µM
IC50 (Huh-7): > 10 µM
IC50 (HepG2): > 10 µM

C=C1C(=O)O[C@@H]2C[C@@]3(C)CCCC(=C)[C@]3(O)C[C@H]12 [TELEKIN]
IC50 (SMMC-7721): > 10 µM
IC50 (Huh-7): > 10 µM
IC50 (HepG2): > 10 µM
